Assay results taken from US20230000081A1, “SYNERGISTIC PESTICIDAL COMPOSITIONS FOR DELIVERY OF PESTICIDAL ACTIVE INGREDIENTS AND METHODS THEREFOR” (0903608 B.C. Ltd., priority 2018, published 2023).
“And” between values parts separate entries of the source, which are not always exact repeats. Identical values can stand only once.

Tests used:
Assay in all cases: Synergistic Growth Inhibition Assay (MIC, FIC index; 96-well microtiter plate, resazurin dye)
Assay type in all cases: cell-based
Alternaria solani = conditions: 7 days incubation; for MIC (A): Compound A alone
Protocol: In some embodiments, the synergistic action between the pesticidal active ingredient, and the at least one C4-C10 (or alternatively C11 or C12) saturated or unsaturated aliphatic acid components of the pesticidal compositions according to embodiments of the present disclosure was tested using a Synergistic Growth Inhibition Assay, which is derived from and related to a checkerboard assay as is known in the art for testing of combinations of antimicrobial agents. In the Synergistic Growth Inhibition Assay used in accordance with some embodiments of the present disclosure, multiple dilutions of combinations of pesticidal active ingredient and at least one C4-C10 saturated or unsaturated aliphatic acid agents are tested in individual cells for inhibitory activity against a target pest or pathogenic organism. In one such embodiment, the combinations of pesticidal active ingredient and C4-C10 (or alternatively C11 or C12) saturated or unsaturated aliphatic acid agents may preferably be tested in decreasing concentrations. In a further such embodiment, the combinations of pesticidal active ingredient and C4-C10 (or alternatively C11 or C12) saturated or unsaturated aliphatic acid agents may be tested in increasing concentrations. These multiple combinations of the pesticidal active ingredient and at least one C4-C10 (or alternatively C11 or C12) saturated or unsaturated aliphatic acid agents may be prepared in 96-well microtiter plates. […] Thus, each well of the microtiter plate is a unique combination of the two agents, at which inhibitory efficacy of the combination against the target pest or pathogen can be determined.
In one embodiment according to the present disclosure, for each row of microtiter cells in the Synergistic Growth Inhibition Assay, the FIC index is calculated from the lowest concentration of the pesticidal active ingredient and one or more C4-C10 saturated or unsaturated aliphatic acid agents necessary to inhibit growth of a target pest or pathogen. […] The FIC index is calculated for each row as follows: […]

Fusarium oxysporum = conditions: for MIC (A): Compound A alone
Protocol: (§1) In some embodiments, the synergistic action between the pesticidal active ingredient, and the at least one C4-C10 (or alternatively C11 or C12) saturated or unsaturated aliphatic acid components of the pesticidal compositions according to embodiments of the present disclosure was tested using a Synergistic Growth Inhibition Assay, which is derived from and related to a checkerboard assay as is known in the art for testing of combinations of antimicrobial agents. In the Synergistic Growth Inhibition Assay used in accordance with some embodiments of the present disclosure, multiple dilutions of combinations of pesticidal active ingredient and at least one C4-C10 saturated or unsaturated aliphatic acid agents are tested in individual cells for inhibitory activity against a target pest or pathogenic organism. In one such embodiment, the combinations of pesticidal active ingredient and C4-C10 (or alternatively C11 or C12) saturated or unsaturated aliphatic acid agents may preferably be tested in decreasing concentrations. In a further such embodiment, the combinations of pesticidal active ingredient and C4-C10 (or alternatively C11 or C12) saturated or unsaturated aliphatic acid agents may be tested in increasing concentrations. These multiple combinations of the pesticidal active ingredient and at least one C4-C10 (or alternatively C11 or C12) saturated or unsaturated aliphatic acid agents may be prepared in 96-well microtiter plates. In one such embodiment, the Synergistic Growth Inhibition Assay then comprises rows which each contain progressively decreasing concentrations of the pesticidal active ingredient and one or more C4-C10 (or alternatively C11 or C12) saturated or unsaturated aliphatic acid agents to test for the MIC of the agents in combination at which growth of the target pest or pathogen is inhibited. Thus, each well of the microtiter plate is a unique combination of the two agents, at which inhibitory efficacy of the combination against the target pest or pathogen can be determined.
(§2) In one embodiment according to the present disclosure, for each row of microtiter cells in the Synergistic Growth Inhibition Assay, the FIC index is calculated from the lowest concentration of the pesticidal active ingredient and one or more C4-C10 saturated or unsaturated aliphatic acid agents necessary to inhibit growth of a target pest or pathogen. The FIC of each component is derived by dividing the concentration of the agent present in that well of the microtiter plate by the minimal inhibitory concentration (MIC) needed of that agent alone to inhibit growth of the target pest or pathogen. The FIC index is then the sum of these values for both agents in that well of the microtiter plate. The FIC index is calculated for each row as follows:
(§3) FICindex=MICa/MICA+MICb/MICB
(§4) Fractional inhibitory concentration indices may then used as measure of synergy. […] When the FIC index is equal to 1, the combination is additive.
Then, serial dilutions of these initial compositions in successive wells in the row of the microtiter plate were used to assay the pesticidal composition under the same conditions to determine the concentration of the composition combining the two agents corresponding to the microtiter well in which growth inhibition of the target pest or organism ceases. […]

Botrytis cinerea = conditions: for MIC (A): Compound A alone
Protocol: as §1, §2, §3, §4
(§5) Then, serial dilutions of these initial compositions in successive wells in the row of the microtiter plate were used to assay the pesticidal composition under the same conditions to determine the concentration of the composition combining the two agents corresponding to the microtiter well in which growth inhibition of the target pest or organism ceases.
Similarly to as described above, Resazurin was used as an indicator of growth or inhibition of growth of Botrytis cinerea in the exemplary Synergistic Growth Inhibition Assay. In addition to the color change of the resazurin, an optical or visual examination of the microtiter well may also be made to additionally determine the presence of growth or inhibition of growth of the Botrytis cinerea.

Sclerotinia sclerotiorum = conditions: for MIC (A): Compound A alone
Protocol: as §1, §2, §3, §4, §5
Similarly to as described above, Resazurin was used as an indicator of growth or inhibition of growth of Sclerotinia sclerotiorum in the exemplary Synergistic Growth Inhibition Assay. […]

[1] = Compound B alone, 48 hours incubation
[2] = Compound B (aliphatic acid) alone, Botrytis cinerea, 48 hours incubation
[3] = Fusarium oxysporum, incubation period of 48 hours
[4] = Sclerotinia sclerotiorum, 7 days incubation
[5] = Botrytis cinerea, 48 hours incubation

Molecule: CCC(O)C(=O)O (stereo not drawn) [2-Hydroxybutyric acid]
- MIC (B) (Alternaria solani; Compound B (aliphatic acid) alone): 2500 µg/mL

Molecule: CC(O)CC(=O)O (stereo not drawn) [3-Hydroxybutyric acid, 3-hydroxybutyric acid]
- MIC (B) (Fusarium oxysporum; [1]): 10000 µg/mL
- MIC (B) (Botrytis cinerea; [2]): 10000 µg/mL

Molecule: CCCCCCCC(O)CC(=O)O (stereo not drawn) [3-Hydroxydecanoic acid, 3-hydroxydecanoic acid]
- MIC (B) (Botrytis cinerea; [2]): 125 µg/mL

Molecule: CCCC(O)CC(=O)O (stereo not drawn) [3-Hydroxyhexanoic acid, 3-hydroxyhexanoic acid]
- MIC (B) (Botrytis cinerea; [2]): 2500 µg/mL

Molecule: O=C(O)CCCCCCCO [8-Hydroxyoctanoic acid]
- MIC (B) (Botrytis cinerea; [2]): 2500 µg/mL

Molecule: O=C(O)CCCCCCCCCCCO [12-Hydroxydodecanoic acid]
- MIC (B) (Botrytis cinerea; [2]): 100 µg/mL and 50 µg/mL

Molecule: CCCCCCCC/C=C\CCCCCCCC(=O)O [(9Z)-octadecenoic acid]
- MIC (B) (Botrytis cinerea; Compound B alone, Botrytis cinerea, incubation period of 48 hours): 5000 µg/mL
- MIC (B) (Sclerotinia sclerotiorum; Compound B alone, Sclerotinia sclerotiorum, 7 days incubation): 5000 µg/mL

Molecule: CO/C=C(/C(=O)OC)c1ccccc1Oc1cc(Oc2ccccc2C#N)ncn1 [Azoxystrobin, azoxystrobin, reference compound]
- MIC (A) (Fusarium oxysporum; Fusarium oxysporum, 48 hours incubation): 150 µg/mL
- MIC (A) (Fusarium oxysporum; [3]): 150 µg/mL
- MIC (A) (Botrytis cinerea; Botrytis cinerea, incubation period of 2 days): 150 µg/mL
- MIC (A) (Botrytis cinerea; Botrytis cinerea, incubation period of 48 hours): 75 µg/mL and 150 µg/mL
- MIC (A) (Sclerotinia sclerotiorum; 7 days incubation): 75 µg/mL
- MIC (A) (Sclerotinia sclerotiorum; [4]): 150 µg/mL
- MIC (A) (Sclerotinia sclerotiorum; Sclerotinia sclerotiorum, incubation period of 7 days): 150 µg/mL

Molecule: N#Cc1c[nH]cc1-c1cccc2c1OC(F)(F)O2 [Fludioxonil, fludioxonil]
- MIC (A) (Fusarium oxysporum; 24 hour incubation): 0.24063 µg/mL

Molecule: CCCCCC(=O)O [Hexanoic acid]
- MIC (B) (Botrytis cinerea; [1]): 156.2 µg/mL

Molecule: Cc1cc(C(F)(F)F)nn1CC(=O)N1CCC(c2nc(C3=NOC(c4c(F)cccc4F)C3)cs2)CC1 (stereo not drawn) [Oxathiapiprolin]
- MIC (A) (Botrytis cinerea; [5]): 500 µg/mL

Molecule: CO/C=C(/C(=O)OC)c1ccccc1COc1cccc(C(F)(F)F)n1 [Picoxystrobin]
- MIC (A) (Botrytis cinerea; [5]): 250 µg/mL
- MIC (A) (Sclerotinia sclerotiorum; [4]): 500 µg/mL
- MIC (A) (Alternaria solani): 500 µg/mL

Molecule: CC(C)(C)C(O)(CCc1ccc(Cl)cc1)Cn1cncn1 (stereo not drawn) [Tebuconazole]
- MIC (A) (Fusarium oxysporum; [3]): 225 µg/mL

Molecule: Mancozeb
- MIC (A) (Alternaria solani): 500 µg/mL
